{"source": "PubChem BioAssay AID248", "about": "(DTP/NCI, 2004)", "system": "L1210 leukemia ip in BDF1 mice, survival T/C", "experiment": "NCI In Vivo Anticancer Drug Screen. Data for tumor model L1210 Leukemia (intraperitoneal) in B6D2F1 (BDF1) mice", "conditions": "endpoint: mean survival time, higher = longer survival", "outline": "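Antitumor effect is assessed in tumor-bearing animals. Survival in the compound arm is compared with a vehicle-dosed control arm and expressed as their quotient.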", "key": {"[1]": {"conditions": "dose: 100.0 mg/kg/injection, schedule: Q04DX002 (ip), vehicle: saline"}, "[2]": {"conditions": "dose: 200.0 mg/kg/injection, schedule: Q04DX002 (ip), vehicle: saline"}, "[3]": {"conditions": "dose: 400.0 mg/kg/injection, schedule: Q04DX002 (ip), vehicle: saline"}, "[4]": {"conditions": "dose: 12.5 mg/kg/injection, schedule: Q04DX003 (ip), vehicle: saline"}, "[5]": {"conditions": "dose: 25.0 mg/kg/injection, schedule: Q04DX003 (ip), vehicle: saline"}, "[6]": {"conditions": "dose: 50.0 mg/kg/injection, schedule: Q04DX003 (ip), vehicle: saline"}}, "note": "Values joined by “and” are separate entries in the source; they are usually repeats but may differ in a detail not shown here. Equal values may be shown once. Inconclusive results and toxic doses are left out."}
{"smiles": "O=C(CN1CC1)Nc1ccc(NC(=O)CN2CC2)cc1", "values": [{"measurement": "T/C", "setting": "dose: 1.5 mg/kg/injection, schedule: Q01DX009 (ip), vehicle: carboxymethylcellulose (CMC)", "value": "116 % of control and 117 % of control"}, {"measurement": "T/C", "setting": "dose: 7.3 mg/kg/injection, schedule: Q01DX001 (ip), vehicle: carboxymethylcellulose (CMC)", "value": "116 % of control"}, {"measurement": "T/C", "setting": "dose: 11.0 mg/kg/injection, schedule: Q01DX009 (ip), vehicle: carboxymethylcellulose (CMC)", "value": "168 % of control"}, {"measurement": "T/C", "setting": "dose: 11.1 mg/kg/injection, schedule: Q01DX009 (ip), vehicle: carboxymethylcellulose (CMC)", "value": "161 % of control"}, {"measurement": "T/C", "setting": "dose: 16.6 mg/kg/injection, schedule: Q01DX009 (ip), vehicle: carboxymethylcellulose (CMC)", "value": "96 % of control and 211 % of control"}, {"measurement": "T/C", "setting": "dose: 25.0 mg/kg/injection, schedule: Q01DX001 (ip), vehicle: carboxymethylcellulose (CMC)", "value": "152 % of control and 160 % of control"}, {"measurement": "T/C", "setting": "dose: 25.0 mg/kg/injection, schedule: Q01DX009 (ip), vehicle: carboxymethylcellulose (CMC)", "value": "103 % of control"}, {"measurement": "T/C", "setting": "dose: 37.5 mg/kg/injection, schedule: Q01DX001 (ip), vehicle: carboxymethylcellulose (CMC)", "value": "163 % of control"}, {"measurement": "T/C", "setting": "dose: 50.0 mg/kg/injection, schedule: Q01DX001 (ip), vehicle: carboxymethylcellulose (CMC)", "value": "151 % of control"}]}
{"smiles": "c1ccc2c3nc4ccccc4c-3scc2c1", "values": [{"measurement": "T/C", "setting": "dose: 100.0 mg/kg/injection, schedule: Q01DX001 (ip), vehicle: acetone", "value": "100 % of control"}, {"measurement": "T/C", "setting": "dose: 200.0 mg/kg/injection, schedule: Q01DX001 (ip), vehicle: acetone", "value": "103 % of control"}]}
{"smiles": "CCOC(=O)CC(N)=O", "values": [{"measurement": "T/C", "setting": "[1]", "value": "111 % of control"}, {"measurement": "T/C", "setting": "[2]", "value": "96 % of control"}, {"measurement": "T/C", "setting": "[3]", "value": "104 % of control"}]}
{"smiles": "[Cl][Pd]([Cl])([Cl])[Cl]", "values": [{"measurement": "T/C", "setting": "[4]", "value": "95 % of control"}, {"measurement": "T/C", "setting": "[5]", "value": "98 % of control"}, {"measurement": "T/C", "setting": "[6]", "value": "102 % of control"}, {"measurement": "T/C", "setting": "dose: 100.0 mg/kg/injection, schedule: Q04DX003 (ip), vehicle: saline", "value": "90 % of control"}]}
{"smiles": "Cc1c(C)c(C)c(CN/N=C/c2ccncc2)c(C)c1C", "values": [{"measurement": "T/C", "setting": "dose: 100.0 mg/kg/injection, schedule: Q04DX003 (ip), vehicle: Klucel (hydroxypropylcellulose) (HPC)", "value": "98 % of control"}, {"measurement": "T/C", "setting": "dose: 200.0 mg/kg/injection, schedule: Q04DX003 (ip), vehicle: Klucel (hydroxypropylcellulose) (HPC)", "value": "109 % of control"}, {"measurement": "T/C", "setting": "dose: 400.0 mg/kg/injection, schedule: Q04DX003 (ip), vehicle: Klucel (hydroxypropylcellulose) (HPC)", "value": "101 % of control"}]}
{"smiles": "C=COCCCCCC", "values": [{"measurement": "T/C", "setting": "[1]", "value": "103 % of control"}, {"measurement": "T/C", "setting": "[2]", "value": "100 % of control"}, {"measurement": "T/C", "setting": "[3]", "value": "90 % of control"}]}
{"smiles": "NCCc1ccc(OCc2ccccc2)c(OCc2ccccc2)c1", "values": [{"measurement": "T/C", "setting": "dose: 12.5 mg/kg/injection, schedule: Q01DX009 (ip), vehicle: saline", "value": "108 % of control"}, {"measurement": "T/C", "setting": "[4]", "value": "98 % of control"}, {"measurement": "T/C", "setting": "dose: 25.0 mg/kg/injection, schedule: Q01DX009 (ip), vehicle: saline", "value": "97 % of control"}, {"measurement": "T/C", "setting": "[5]", "value": "102 % of control"}, {"measurement": "T/C", "setting": "[6]", "value": "98 % of control"}]}
{"smiles": "CC(=O)Nc1ccc2c(=O)cc[nH]c2n1", "values": [{"measurement": "T/C", "setting": "dose: 50.0 mg/kg/injection, schedule: Q01DX001 (ip), vehicle: saline", "value": "89 % of control"}, {"measurement": "T/C", "setting": "dose: 100.0 mg/kg/injection, schedule: Q01DX001 (ip), vehicle: saline", "value": "93 % of control"}, {"measurement": "T/C", "setting": "dose: 200.0 mg/kg/injection, schedule: Q01DX001 (ip), vehicle: saline", "value": "106 % of control"}, {"measurement": "T/C", "setting": "dose: 400.0 mg/kg/injection, schedule: Q01DX001 (ip), vehicle: saline", "value": "95 % of control"}]}
{"smiles": "Cc1ccc(S(=O)(=O)OC2(C(=O)c3ccccc3)CC3CCC2C3)cc1", "note": "(centres undefined)", "values": [{"measurement": "T/C", "setting": "dose: 50.0 mg/kg/injection, schedule: Q01DX001 (ip), vehicle: Klucel (hydroxypropylcellulose) (HPC)", "value": "93 % of control"}, {"measurement": "T/C", "setting": "dose: 100.0 mg/kg/injection, schedule: Q01DX001 (ip), vehicle: Klucel (hydroxypropylcellulose) (HPC)", "value": "96 % of control"}, {"measurement": "T/C", "setting": "dose: 200.0 mg/kg/injection, schedule: Q01DX001 (ip), vehicle: Klucel (hydroxypropylcellulose) (HPC)", "value": "94 % of control"}]}
{"smiles": "O=C(/C=C/c1ccc(Cl)cc1)NCC(O)CO", "note": "(centres undefined)", "values": [{"measurement": "T/C", "setting": "dose: 150.0 mg/kg/injection, schedule: Q04DX003 (ip), vehicle: water", "value": "100 % of control"}, {"measurement": "T/C", "setting": "dose: 300.0 mg/kg/injection, schedule: Q04DX003 (ip), vehicle: water", "value": "105 % of control"}, {"measurement": "T/C", "setting": "dose: 600.0 mg/kg/injection, schedule: Q04DX003 (ip), vehicle: water", "value": "102 % of control"}]}
